The values below come from patent publication US20250320224A1 (DOMAIN THERAPEUTICS, priority 2022, published 2025).

The target in this assay is T1, human PAR-2 (hPAR-2) receptor (Homo sapiens, UniProt P55085).
T1 construct: expressed in HEK-293 cells in an endogenous manner; endogenous in cells; host or cells: HEK-293
T1 sequence (P55085 26-397): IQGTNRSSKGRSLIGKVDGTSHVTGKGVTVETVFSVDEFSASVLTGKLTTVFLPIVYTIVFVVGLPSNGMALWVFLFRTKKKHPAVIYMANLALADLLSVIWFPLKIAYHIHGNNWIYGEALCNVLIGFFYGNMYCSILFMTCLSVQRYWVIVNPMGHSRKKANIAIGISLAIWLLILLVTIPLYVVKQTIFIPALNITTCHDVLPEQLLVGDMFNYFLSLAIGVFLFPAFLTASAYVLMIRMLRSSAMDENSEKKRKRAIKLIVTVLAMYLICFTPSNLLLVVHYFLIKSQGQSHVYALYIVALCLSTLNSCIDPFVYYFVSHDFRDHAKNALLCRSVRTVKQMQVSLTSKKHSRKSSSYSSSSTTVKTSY
Put plainly: In vitro human PAR-2 functional antagonist activity using calcium assays. Type of assay: cell-based. To be noted: hPAR-2 endogenously expressed in HEK-293 cells; stimulated by 2-Furoyl-LIGRLO-NH2 peptide; Fluo4AM intracellular calcium, FLIPR Tetra. The method in brief:
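HEK-293 cells with endogenous hPAR-2 were loaded with Fluo4AM and read for intracellular Ca2+ on FLIPR. After 10 min with compound alone, cells were stimulated with 2-Furoyl-LIGRLO-NH2 at the concentration giving 80% of maximal response. Inhibition was then recorded over 5 min relative to buffer and agonist-only signals.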

Counter-ions that a name gives are not always drawn. Where only a bound is given, the exact number is not on record here.

On to `Cc1nc(N2CCN(C(=O)c3ccc4c(n3)C(C)(C)CN4c3ccc(Cl)c(F)c3)C(C)(C)C2)sc1C(=O)O` [Example 69, 2-(4-(1-(4-chloro-3-fluorophenyl)-3,3-dimethyl-2,3-dihydro-1H-pyrrolo[3,2-b]pyridine-5-carbonyl)-3,3-dimethylpiperazin-1-yl)-4-methylthiazole-5-carboxylic acid], for which the IC50 was less than 0.5 µM. As to `CO[C@H]1CN(C(=O)c2ccc3c(n2)C(C)(C)CN3c2ccc(Cl)c(F)c2)CC[C@@H]1CC(=O)O` [Example 94, 2-((3R,4R)-1-(1-(4-chloro-3-fluorophenyl)-3,3-dimethyl-2,3-dihydro-1H-pyrrolo[3,2-b]pyridine-5-carbonyl)-3-methoxypiperidin-4-yl)acetic acid], the half-inhibitory concentration (IC50) lay in the range of 0.5 to 10 µM.

For `Cc1cc(N2CCN(C(=O)c3ccc4c(n3)C3(CCOC3)CN4c3ccc(Cl)c(F)c3)C(C)(C)C2)nc(C)c1C(=O)O` (stereo not drawn) [Example 60, 6-(4-(1′-(4-chloro-3-fluorophenyl)-1′,2′,4,5-tetrahydro-2H-spiro[furan-3,3′-pyrrolo[3,2-b]pyridine]-5′-carbonyl)-3,3-dimethylpiperazin-1-yl)-2,4-dimethylnicotinic acid hydrochloride], the IC50 is less than 0.5 µM. In the case of `Cc1cc(N2CCN(C(=O)c3cnc4c(n3)C(C)(C)CN4c3ccc(F)c(Cl)c3)C(C)(C)C2)nc(C)c1C(=O)O` [Example 191, 6-(4-(5-(3-chloro-4-fluorophenyl)-7,7-dimethyl-6,7-dihydro-5H-pyrrolo[2,3-b]pyrazine-2-carbonyl)-3,3-dimethylpiperazin-1-yl)-2,4-dimethylnicotinic acid], the concentration for half-maximal inhibition (IC50) was less than 0.5 µM.

As for `CC1(C)CN(c2ccc(Cl)c(F)c2)c2ccc(C(=O)N3CCC(CC(=O)O)CC3)nc21` [Example 35, 2-(1-(1-(4-chloro-3-fluorophenyl)-3,3-dimethyl-2,3-dihydro-1H-pyrrolo[3,2-b]pyridine-5-carbonyl)piperidin-4-yl)acetic acid], the half-maximal inhibitory concentration (IC50) fell in the range of 0.5 to 10 µM. In the case of `CC1(C)C(=O)NCCN1C(=O)c1ccc2c(n1)[C@]1(C)CCO[C@@H]1N2c1ccc(Cl)c(F)c1` (single isomer, unassigned) [Example 63], the IC50 is 0.5 to 10 µM.

For `CC1(C)CN(c2ccc(Cl)c(F)c2)c2ccc(C(=O)N3CCNC(=O)CC3(C)C)nc21` [Example 74, 1-(1-(4-chloro-3-fluorophenyl)-3,3-dimethyl-2,3-dihydro-1H-pyrrolo[3,2-b]pyridine-5-carbonyl)-7,7-dimethyl-1,4-diazepan-5-one], the IC50 is less than 0.5 µM. In the case of `CC1(C)CN(C2CCC(F)(F)CC2)c2ccc(C(=O)N3CCN(c4ccc(CC(=O)O)cn4)CC3(C)C)nc21` [Example 164, 2-(6-(4-(1-(4,4-difluorocyclohexyl)-3,3-dimethyl-2,3-dihydro-1H-pyrrolo[3,2-b]pyridine-5-carbonyl)-3,3-dimethylpiperazin-1-yl)pyridin-3-yl)acetic acid], the 50% inhibitory concentration (IC50) was less than 0.5 µM.

Turning to `Cc1cc(N2CCN(C(=O)c3ccc4c(n3)C(C)(C)CN4c3ccc4c(c3)COC4)C(C)(C)C2)nc(C)c1C(=O)O` [Example 209, 6-(4-(1-(1,3-dihydroisobenzofuran-5-yl)-3,3-dimethyl-2,3-dihydro-1H-pyrrolo[3,2-b]pyridine-5-carbonyl)-3,3-dimethylpiperazin-1-yl)-2,4-dimethylnicotinic acid], the half-inhibitory concentration (IC50) was less than 0.5 µM.

Turning to `CC1(C)CN(c2ccc(Cl)c(F)c2)c2ccc(C(=O)N3CCC(N4CCNC4=O)CC3)nc21` [Example 77, 1-(1-(1-(4-chloro-3-fluorophenyl)-3,3-dimethyl-2,3-dihydro-1H-pyrrolo[3,2-b]pyridine-5-carbonyl)piperidin-4-yl)imidazolidin-2-one], the IC50 was 0.5 to 10 µM. As for `CC1(C)CN(C2CCC(C#N)CC2)c2ccc(C(=O)N3CCN(c4ccc(CC(=O)O)cn4)CC3(C)C)nc21` (stereo not drawn) [Example 169, 2-(6-(4-(1-(4-cyanocyclohexyl)-3,3-dimethyl-2,3-dihydro-1H-pyrrolo[3,2-b]pyridine-5-carbonyl)-3,3-dimethylpiperazin-1-yl)pyridin-3-yl)acetic acid], the IC50 is 0.5 to 10 µM. Next, `COC(=O)c1c(C)cc(N2CCN(C(=O)c3ccc4c(n3)C(C)(C)CN4c3ccccn3)C(C)(C)C2)nc1C` [Example 135, methyl 6-(4-(3,3-dimethyl-1-(pyridin-2-yl)-2,3-dihydro-1H-pyrrolo[3,2-b]pyridine-5-carbonyl)-3,3-dimethylpiperazin-1-yl)-2,4-dimethylnicotinate]: 0.5 to 10 µM; `CC1(C)CN(c2ccc(Cl)c(F)c2)c2ccc(C(=O)N3CCN(c4ccc(CC(=O)O)cn4)CC3(C)C)nc21` [Example 65, 2-(6-(4-(1-(4-chloro-3-fluorophenyl)-3,3-dimethyl-2,3-dihydro-1H-pyrrolo[3,2-b]pyridine-5-carbonyl)-3,3-dimethylpiperazin-1-yl)pyridin-3-yl)acetic acid]: less than 0.5 µM; `COC(=O)CCCCCCC(=O)N1CCN(C(=O)c2cnc3c(n2)C2(CN3c3ccc(Cl)c(F)c3)CC(C)(C)C2)C(C)(C)C1` [Example 259, methyl 8-(4-(5′-(4-chloro-3-fluorophenyl)-3,3-dimethyl-5′,6′-dihydrospiro[cyclobutane-1,7′-pyrrolo[2,3-b]pyrazine]-2′-carbonyl)-3,3-dimethylpiperazin-1-yl)-8-oxooctanoate]: less than 0.5 µM. Turning to `CO[C@H]1CCC2(C1)CN(c1ccc(Cl)c(F)c1)c1ccc(C(=O)N3CCN(c4cc(C)c(C(=O)O)c(C)n4)CC3(C)C)nc12` (stereo partly drawn) [Example 146, 6-(4-((3S)-1′-(4-chloro-3-fluorophenyl)-3-methoxy-1′,2′-dihydrospiro[cyclopentane-1,3′-pyrrolo[3,2-b]pyridine]-5′-carbonyl)-3,3-dimethylpiperazin-1-yl)-2,4-dimethylnicotinic acid], the IC50 was less than 0.5 µM. Turning to `CCC1(CC)CN(c2ccc(Cl)c(F)c2)c2ccc(C(=O)N3CCN(c4cc(C)c(C(=O)O)c(C)n4)CC3(C)C)nc21` [Example 103, 6-(4-(1-(4-chloro-3-fluorophenyl)-3,3-diethyl-2,3-dihydro-1H-pyrrolo[3,2-b]pyridine-5-carbonyl)-3,3-dimethylpiperazin-1-yl)-2,4-dimethylnicotinic acid], the concentration for half-maximal inhibition (IC50) is less than 0.5 µM. Next, `CC1(C)CN(c2ccc(Cl)c(F)c2)c2ccc(C(=O)N3CCN(c4cc(C(=O)O)ccn4)CC3(C)C)nc21` [Example 105, 2-(4-(1-(4-chloro-3-fluorophenyl)-3,3-dimethyl-2,3-dihydro-1H-pyrrolo[3,2-b]pyridine-5-carbonyl)-3,3-dimethylpiperazin-1-yl)isonicotinic acid]: less than 0.5 µM; `CC(C)(C)OC(=O)N1CCN(C(=O)c2ccc3c(n2)C(C)(C)CN3c2ccc(Cl)c(F)c2)C(C)(C)C1` [Example 21, tert-butyl 4-(1-(4-chloro-3-fluorophenyl)-3,3-dimethyl-2,3-dihydro-1H-pyrrolo[3,2-b]pyridine-5-carbonyl)-3,3-dimethylpiperazine-1-carboxylate]: less than 0.5 µM; `Cc1cc(N2CCN(C(=O)c3ccc4c(n3)C(C)(C)CN4c3ccc(Cl)c(F)c3)C(C)(C)C2)nc(C)c1C(=O)O` [Example 45, 6-(4-(1-(4-chloro-3-fluorophenyl)-3,3-dimethyl-2,3-dihydro-1H-pyrrolo[3,2-b]pyridine-5-carbonyl)-3,3-dimethylpiperazin-1-yl)-2,4-dimethylnicotinic acid]: less than 0.5 µM.

On to `CC1(C)CN(c2ccc(F)c(F)c2)c2ncc(C(=O)N3CCN(c4ccc(CC(=O)O)cn4)CC3(C)C)nc21` [Example 171, 2-(6-(4-(5-(3,4-difluorophenyl)-7,7-dimethyl-6,7-dihydro-5H-pyrrolo[2,3-b]pyrazine-2-carbonyl)-3,3-dimethylpiperazin-1-yl)pyridin-3-yl)acetic acid], for which the IC50 is less than 0.5 µM. Next, `Cc1cc(N2CCN(C(=O)c3cnc4c(n3)C(C)(C)CN4c3cc(F)c(Cl)c(F)c3)C(C)(C)C2)nc(C)c1C(=O)O` [Example 187, 6-(4-(5-(4-chloro-3,5-difluorophenyl)-7,7-dimethyl-6,7-dihydro-5H-pyrrolo[2,3-b]pyrazine-2-carbonyl)-3,3-dimethylpiperazin-1-yl)-2,4-dimethylnicotinic acid]: less than 0.5 µM; `CCC1(CC)CN(c2ccc(Cl)c(F)c2)c2ccc(C(=O)N3CCN(c4ccc(CC(=O)O)cn4)CC3(C)C)nc21` [Example 148, 2-(6-(4-(1-(4-chloro-3-fluorophenyl)-3,3-diethyl-2,3-dihydro-1H-pyrrolo[3,2-b]pyridine-5-carbonyl)-3,3-dimethylpiperazin-1-yl)pyridin-3-yl)acetic acid]: less than 0.5 µM. Regarding `CC(=O)N1CCN(C(=O)c2ccc3c(n2)C(C)(C)CN3c2ccc(Cl)c(F)c2)C(C)(C)C1` [Example 24, 1-(4-(1-(4-chloro-3-fluorophenyl)-3,3-dimethyl-2,3-dihydro-1H-pyrrolo[3,2-b]pyridine-5-carbonyl)-3,3-dimethylpiperazin-1-yl)ethan-1-one], the IC50 is 0.5 to 10 µM.

As to `Cc1cc(N2CCN(C(=O)c3ccc4c(n3)C(C)(C)CN4c3ccc(C4CC4)cc3)C(C)(C)C2)nc(C)c1C(=O)O` [Example 279, 6-(4-(1-(4-cyclopropylphenyl)-3,3-dimethyl-2,3-dihydro-1H-pyrrolo[3,2-b]pyridine-5-carbonyl)-3,3-dimethylpiperazin-1-yl)-2,4-dimethylnicotinic acid], the IC50 is less than 0.5 µM.
